Assay [1] deals with [11C]PBB3 binding sites (tau aggregates) in temporal cortex homogenates of an Alzheimer's disease patient (Homo sapiens, UniProt P10636). In words: Fluorescence competitive binding assay in vitro ([11C]PBB3 displacement in Alzheimer's disease temporal cortex homogenates). The conditions noted are these: 5 nM [11C]PBB3, AD temporal cortex homogenate (100 μg tissue), 30 min, room temperature. Here is the method:
Fluorescence competitive binding assay in vitro was performed as reported previously1. Frozen tissues derived from the temporal cortex of an Alzheimer's disease patient was homogenized in 50 mM Tris-HCl buffer, pH 7.4, containing protease inhibitor cocktail (cOmplete™, EDTA-free; Roche), and stored at −80° C. pending analyses. To assay radioligand binding with homologous or heterologous blockade, these homogenates (100 μg tissue) were incubated with 5 nM [11C]PBB3 (molar radioactivity: 100-150 GBq/μmol) in the absence or presence of unlabeled PBB3 at varying concentrations ranging from 10-11-106 M in Tris-HCl buffer containing 10% ethanol, pH 7.4, for 30 min at room temperature. Non-specific binding of [11C]PBB3 was determined in the presence of 5×10^−7 M PBB3. Samples were run once only and specific radioligand binding was determined as pmol/g tissue. Inhibition constant (Ki) and percentage of displacement were determined by using non-linear regression to fit a concentration-binding plot to one-site and two-site binding models derived from the Cheng-Prusoff equation with GraphPad Prism version 6.0 (GraphPad Software), followed by F-test for model selection. In a one-site homologous blockade model, dissociation constant (Kd) was calculated from homologous competitive binding using this function: Kd=Ki=IC50−Radioligand
where IC50 and [Radioligand] stand for the concentration of the competitor inducing 50% inhibition and radioligand concentration, respectively. Experiments with [^11C]PBB3 and unlabeled PBB3 were performed in a dimly lit condition to avoid photoconversion of the compounds. Table B lists Ki values of exemplary test compounds.

For assay [2], the system named is tau aggregates (tangles/threads) in temporal cortex sections of an AD brain. In words: Histological examination by fluorescence staining of AD brain sections. It counts as binding, human. The conditions noted are these: 0.001% (W/V) compound in 50% ethanol, 30 min, relative to PBB3; for Fluorescent binding Tangle: score for tangles; for Fluorescent binding Thread: score for threads. Here is the method:
The fluorescence binding assessment was performed as reported previously^1. For fluorescence labeling with PBB3 and test compounds, deparaffinized temporal cortex sections of an AD brain were incubated in 50% ethanol containing 0.001% (W/V) of PBB3 or test compound at room temperature for 30 min. The samples were rinsed with 50% ethanol for 5 min, dipped into distilled water twice for 3 min, and mounted in non-fluorescent mounting media ([…]; Vector Laboratories). Fluorescence images were captured using a DM4000 microscope (Leica) equipped with a custom filter cube for PBB3 (excitation band-pass at 391-437 nm and suppression low-pass with 458 nm cutoff).

Assay [3] deals with recombinant tau proteins (human Tau, heparin-fiberized) (Homo sapiens, UniProt P10636). As to the kind of experiment: Fluorescence quantitative Tau binding assay in vitro. The note with it: 0.04 uM fiberized recombinant tau, 30 mM Tris pH 7.5, 1 h, fluorometric saturation curve. Here is the method: Expression and Purification of Human Tau Protein
• pET41a-Tau wild type • One Shot® BL21(DE3) Chemically Competent E. coli (Invitrogen, C600003) • Kanamycin sulfate (Sangon Biotech, A506636) • IPTG (Sangon Biotech, A100487) • Pipes buffer (100 mM Pipes, pH6.8, 1 mM EGTA, 1 mM MgSO4) • Hepes buffer (25 mM Hepes, pH7.2, 0.1 mM EDTA, 0.5 mM DTT, 100 mM NaCl) • Q-Sepharose Fast Flow column (GE Healthcare, 17-0510-01) • SP-Sepharose Fast Flow column (GE Healthcare, 17-0729-01) Procedures: Protein Expression: • Step 1: Transform 1 uL expression plasmid pET41a-tau wt into one One Shot® BL21(DE3) Chemically Competent E. coli, on ice 30 min. • Step 2: 42° C. heat shock 90 second and on ice 2 min, 37° C. recovery for 30 min, Plate small amount on LB(Kan+) agar plate incubate overnight at 37° C. • Step 3: Pick and resuspend a single colony in 200 mL liquid culture with 50 ug/mL Kanamycin to produce a starter culture. Inoculate starter culture and shake 200 rpm overnight at 37° C. • Step 4: Add 100× dilution Starter into fresh culture medium (Kan+) shake 200 rpm at 37° C. until OD600=0.8. • Step 5: Add IPTG (final conc. 1 mM) and express protein for 3 hr. • Step 6: Collect cell pellet and store at −80° C. for purification. Protein Purification: • Step 1: Cell pellet was resuspended in Pipes buffer. • Step 2: Sonication and centrifugation (15,000 rpm, 15 min at 4° C. • Step 3: The supernatant was placed in a boiling water bath for 20 min and subsequently centrifuged. The heat-stable proteins in the supernatant were loaded onto a Q-Sepharose Fast Flow column (20 mL) • Step 4: The flow through containing tau was loaded onto SP-Sepharose Fast Flow column (10 mL), eluted with Pipes buffer containing 0.2M NaCl. • Step 6: Fractions containing tau were pooled, concentrated and dialyzed against Hepes buffer, stored at −80° C. • Step 7: Reload SP-Flow through into Q-Sepharose Fast Flow column (20 mL) and SP-Sepharose Fast Flow column (10 mL) again, eluted with Pipes buffer containing 0.2M NaCl. • Step 8: Fractions containing tau were pooled, concentrated and dialyzed against Hepes buffer, stored at −80° C. Repeat step 6-7 twice, Collect all above all elution product and concentrated. Biological Assays Fluorescence Quantitative Tau Binding Assay In Vitro
2 uM of recombinant tau proteins and 15 uM of heparin were fiberized in 30 mM Tris (pH 7.5) buffer by overnight incubation at 37° C. 0.04 uM of recombinant tau proteins which was diluted in 30 mM Tris buffer (pH 7.5) was then reacted with test compounds (containing 1% DMSO) for 1 h. Regarding the fluorometric data, the binding saturation curve was created and the parameter estimation method was conducted using Prism software (GraphPad). Kd values were determined for each of test compounds. Table A lists Kd values of exemplary test compounds.

pKd, pKi: −log10 of the molar value.

Chain of [11C]PBB3 binding sites (tau aggregates) in temporal cortex homogenates of an Alzheimer's disease patient (P10636 623-695 limits assumed): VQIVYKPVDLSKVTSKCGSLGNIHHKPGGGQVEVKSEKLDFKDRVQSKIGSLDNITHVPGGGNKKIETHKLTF
Chain of recombinant tau proteins (human Tau, heparin-fiberized) (P10636 whole entry): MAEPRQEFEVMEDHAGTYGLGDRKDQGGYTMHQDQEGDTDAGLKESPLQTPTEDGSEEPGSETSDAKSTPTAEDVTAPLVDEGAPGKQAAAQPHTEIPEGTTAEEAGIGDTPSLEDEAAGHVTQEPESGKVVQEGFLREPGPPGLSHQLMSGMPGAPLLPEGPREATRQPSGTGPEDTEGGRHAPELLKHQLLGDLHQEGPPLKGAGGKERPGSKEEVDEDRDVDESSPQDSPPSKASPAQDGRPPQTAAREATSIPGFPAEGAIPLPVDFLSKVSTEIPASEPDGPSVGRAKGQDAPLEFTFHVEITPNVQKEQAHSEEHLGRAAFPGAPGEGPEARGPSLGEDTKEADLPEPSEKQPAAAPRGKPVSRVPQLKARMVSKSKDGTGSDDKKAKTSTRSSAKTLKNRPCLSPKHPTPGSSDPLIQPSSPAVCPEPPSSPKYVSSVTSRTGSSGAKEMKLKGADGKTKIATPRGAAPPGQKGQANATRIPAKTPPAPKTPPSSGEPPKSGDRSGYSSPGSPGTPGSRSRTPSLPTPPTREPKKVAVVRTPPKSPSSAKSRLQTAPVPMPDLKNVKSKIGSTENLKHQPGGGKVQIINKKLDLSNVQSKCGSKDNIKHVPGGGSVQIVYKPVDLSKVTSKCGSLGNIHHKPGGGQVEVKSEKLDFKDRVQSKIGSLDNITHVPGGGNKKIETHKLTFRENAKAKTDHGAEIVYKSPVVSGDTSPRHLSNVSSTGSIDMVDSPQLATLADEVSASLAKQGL

In general, pKi refers to the Ki on a negative log10 scale, so that one unit is a factor of ten. In general, pKd refers to −log10 of the Kd, conventionally taken in molar units. The molecule `COc1ccc2nc(-c3ccc(-c4ccc(N(C)C)nc4F)cc3)cn2c1` [Compound Q, 6-Fluoranyl-5-[4-(6-methoxyimidazo[1,2-a]pyridin-2-yl)phenyl]-N,N-dimethyl-pyridin-2-amine] showed a pKi in assay [1] of 8.30. Moreover, in assay [2], the “Fluorescent binding Tangle” value is given as 1 and the “Fluorescent binding Thread” value was determined as 0.5. Moreover, in assay [3], the pKd was 6.28.

Molecule `Nc1ccc2nc(-c3ccc(-c4ccc(NCCF)nc4)cc3)sc2c1` [Compound I, 2-(4-(6-((2-Fluoroethyl)amino)pyridin-3-yl)phenyl)benzo[d]thiazol-6-amine] had a pKi in assay [1] of 8.30. Also, in assay [2], the “Fluorescent binding Tangle” value is listed as 2 and the “Fluorescent binding Thread” value is on record as 1.5. In assay [3], the pKd was 6.10.

In assay [1], `Nc1cccc(-c2ccc(-c3cc4ccncc4[nH]3)cc2)c1` [Compound A, 3-[4-(1H-Pyrrolo[2,3-c]pyridin-2-yl)phenyl]aniline] gave a pKi of 7.35. Moreover, in assay [2], the “Fluorescent binding Tangle” value was 2/2 and the “Fluorescent binding Thread” value is 2/2. Also, the negative logarithm of the Kd (pKd) in assay [3] is 6.30.

Turning to `CNc1ccc(-c2ccc(-c3cn4cc(NCC(O)CF)ccc4n3)cc2)cn1` (stereo not drawn) [Compound P, 1-Fluoro-3-(2-(4-(6-(methylamino)pyridin-3-yl)phenyl)imidazo[1,2-a]pyridin-6-ylamino)propan-2-ol], the pKi in assay [1] was 7.35. In assay [2], the “Fluorescent binding Tangle” value is listed as 1 and the “Fluorescent binding Thread” value came out at 0. Also, the pKd in assay [3] is 6.43.

For the molecule `CN(C)c1ccc(-c2ccc(-c3nc4ccc(NCC(O)CF)cc4s3)c(F)n2)cn1` (stereo not drawn) [Compound X, 1-[[2-[6-[6-(dimethylamino)pyridin-3-yl]-2-fluoranyl-pyridin-3-yl]-1,3-benzothiazol-6-yl]amino]-3-fluoranyl-propan-2-ol], the pKd in assay [3] is 6.77.

Regarding `CN(C)c1ccc(-c2ccc(-c3nc4ccncc4n3CCF)cc2)cn1` [Compound K, 5-[4-[3-(2-fluoranylethyl)imidazo[4,5-c]pyridin-2-yl]phenyl]-N,N-dimethyl-pyridin-2-amine], the pKd in assay [3] was 5.46.

For the molecule `CNc1ccc(-c2ccc(-c3cc4ccncc4[nH]3)cc2)c(F)n1` [Compound D, 5-(4-(1H-Pyrrolo[2,3-c]pyridin-2-yl)phenyl)-6-fluoro-N-methylpyridin-2-amine], the pKi in assay [1] is 9.00. In assay [2], the “Fluorescent binding Tangle” value was 3/3 and the “Fluorescent binding Thread” value was 3/3. Further, in assay [3], the pKd was 6.16.

In assay [1], `CNc1ccc(-c2ccc(-c3cc4cc(F)ncc4[nH]3)cc2)cn1` [Compound B, 5-(4-(5-Fluoro-1H-pyrrolo[2,3-c]pyridin-2-yl)phenyl)-N-methylpyridin-2-amine] showed a pKi of 8.70. Moreover, in assay [2], the “Fluorescent binding Tangle” value is listed as 3/3 and the “Fluorescent binding Thread” value is on record as 3/3. Moreover, in assay [3], the pKd is 6.00.

Molecule `CNc1ccc(-c2ccc(-c3cc4ccnc(O)c4[nH]3)cc2)cn1` [Compound C, 2-(4-(6-(Methylamino)pyridin-3-yl)phenyl)-1H-pyrrolo[2,3-c]pyridin-7-ol] showed a pKi in assay [1] of 7.60. For the same molecule, in assay [2], the “Fluorescent binding Tangle” value is reported as 2 and the “Fluorescent binding Thread” value was found to be 1.5. In addition, the pKd in assay [3] was 6.60.

In assay [1], `CNc1ncc(-c2cc(F)c(-c3nc4ccc(N)cc4s3)cn2)cn1` [Compound Z, 2-(4-Fluoro-6-(2-(methylamino)pyrimidin-5-yl)pyridin-3-yl)benzo[d]thiazol-6-amine] showed a pKi of 8.30. In assay [2], the “Fluorescent binding Tangle” value was 3/3 and the “Fluorescent binding Thread” value is recorded as 3/3. Besides, in assay [3], the pKd is 5.84.

Consider `CNc1ccc(-c2ccc(-c3nc4ccc(NCC(O)CF)cc4s3)cc2)cn1` (stereo not drawn) [Compound J, 1-Fluoranyl-3-[[2-[4-[6-(methylamino)pyridin-3-yl]phenyl]-1,3-benzothiazol-6-yl]amino]propan-2-ol], for which, in assay [1], the negative-log Ki (pKi) is 8.30. Also, in assay [2], the “Fluorescent binding Tangle” value is reported as 3/3 and the “Fluorescent binding Thread” value is 3/3. In addition, the pKd in assay [3] was 6.05.

The molecule `CN(C)c1ccc(-c2ccc(-c3cc4ccn(CC(O)CF)cc-4n3)cc2)cn1` (stereo not drawn) [Compound G, 1-(2-(4-(6-(Dimethylamino)pyridin-3-yl)phenyl)-6H-pyrrolo[2,3-c]pyridin-6-yl)-3-fluoropropan-2-ol] gave a pKi in assay [1] of 8.00. Also, in assay [2], the “Fluorescent binding Tangle” value is 2 and the “Fluorescent binding Thread” value is listed as 0.5. Further, the pKd in assay [3] was 6.55.

Take `Nc1ccc(-c2ccc(-c3nc4ccncc4o3)cc2)cn1` [Compound H, 5-(4-(Oxazolo[5,4-c]pyridin-2-yl)phenyl)pyridin-2-amine]: the pKd in assay [3] was 7.05.

`CN(C)c1ccc(-c2ccc(-c3cn4cc(OCC(O)CF)ccc4n3)cc2)cn1` (stereo not drawn) [Compound O, 1-(2-(4-(6-(Dimethylamino)pyridin-3-yl)phenyl)imidazo[1,2-a]pyridin-6-yloxy)-3-fluoropropan-2-ol] showed a pKi in assay [1] of 8.00. For the same molecule, in assay [2], the “Fluorescent binding Tangle” value is recorded as 1.5/1.5 and the “Fluorescent binding Thread” value is reported as 1.5/1.5. Further, the negative logarithm of the Kd (pKd) in assay [3] is 6.57.

For `CNc1ncc(-c2ccc(-c3nc4ccc(N)cc4s3)c(F)n2)cn1` [Compound Y, 2-[2-Fluoranyl-6-[2-(methylamino)pyrimidin-5-yl]pyridin-3-yl]-1,3-benzothiazol-6-amine], in assay [3], the pKd was under 5.00.

Turning to `Nc1ccc(-c2ccc(-c3cc4cnccc4[nH]3)cc2)cc1F` [Compound L, 3-Fluoro-4′-(1H-pyrrolo[3,2-c]pyridin-2-yl)biphenyl-4-amine], the pKi in assay [1] was 8.30. Further, in assay [2], the “Fluorescent binding Tangle” value was found to be 2.5 and the “Fluorescent binding Thread” value is 1.5. Further, the pKd in assay [3] was 6.27.

For the molecule `COc1ccc2nc(-c3ccc(-c4ccc(N(C)C)nc4)nc3F)cn2c1` [Compound U, 6-Fluoro-5-(6-methoxyimidazo[1,2-a]pyridin-2-yl)-N,N-dimethyl-2,3′-bipyridin-6′-amine], the pKd in assay [3] is 5.82.

On to `COc1ccc(-c2ccc(-c3cc4ccn(CCO)cc-4n3)cc2)cc1` [Compound F, 2-(2-(4′-Methoxybiphenyl-4-yl)-6H-pyrrolo[2,3-c]pyridine-6-yl)ethanol], for which, in assay [3], the negative-log Kd (pKd) is 6.47.

The values above are taken from patent US12116364B2, “Heteroaryl compounds and uses thereof” (APRINOIA THERAPEUTICS INC., priority 2018, dated 2024).
